{"source": "patent US5422373A", "about": "“Anti-atherosclerotic aryl compounds” (Burroughs Wellcome Co., priority 1990, dated 1995)", "key": {"[1]": {"molecular_target": "T1, ACAT (Rattus norvegicus, UniProt Q7TQM4)", "T1 construct": "using hepatic microsomes as the source of both ACAT and cholesterol; from tissue; host or cells: liver microsomes of male CD rats fed a 0.8% cholesterol/0.2% cholic acid diet", "T1 sequence (Q7TQM4 1-524)": "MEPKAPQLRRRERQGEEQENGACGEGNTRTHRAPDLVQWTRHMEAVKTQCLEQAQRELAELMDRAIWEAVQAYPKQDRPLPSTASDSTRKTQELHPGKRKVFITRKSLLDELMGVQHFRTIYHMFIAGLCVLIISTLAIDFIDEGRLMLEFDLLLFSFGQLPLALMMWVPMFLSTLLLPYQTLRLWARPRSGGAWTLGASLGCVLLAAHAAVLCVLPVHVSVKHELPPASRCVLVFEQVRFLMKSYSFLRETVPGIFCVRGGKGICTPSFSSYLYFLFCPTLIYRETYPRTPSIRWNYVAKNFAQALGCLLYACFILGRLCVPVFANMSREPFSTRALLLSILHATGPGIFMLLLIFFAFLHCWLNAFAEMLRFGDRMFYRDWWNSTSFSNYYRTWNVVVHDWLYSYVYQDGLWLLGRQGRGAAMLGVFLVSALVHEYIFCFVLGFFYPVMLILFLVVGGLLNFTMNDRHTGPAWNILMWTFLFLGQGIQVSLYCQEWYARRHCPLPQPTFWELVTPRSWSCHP", "assay": "In vitro assay for the inhibition of ACAT activity", "format": "biochemical", "conditions": "hepatic microsomes of cholesterol/cholic acid fed male CD rats; [14C]oleoyl-CoA 25 μM", "description": "(i) In vitro assay for the inhibition of ACAT activity\nACAT activity was determined as described by Ross et al by the incorporation of [^14 C]oleoyl-CoA into cholesterol [^14 C]oleate using hepatic microsomes as the source of both ACAT and cholesterol. Microsomes were prepared from the livers of male CD rats fed a 0.8% cholesterol/0.2% cholic acid diet 3.5 days before sacrifice. Various concentrations of a test compound were preincubated with a 0.5mg/ml microsomal suspension and after 15 minutes a 50 μg aliquot was removed and incubated with 25 μM of [^14 C]-enriched oleoyl-CoA for 4 minutes. The reaction was terminated by the addition of 1 ml of ethanol and 4ml of hexane. After shaking, the hexane layer was removed and evaporated to dryness. The hexane extract was then reconstituted in 150 μl of HPLC solvent and injected on to a B&J OD5 Reverse Phase C18 column using an isocratic mobile phase of acetonitrile: isopropanol:heptane (50:40:10) in 0.5% acetic acid at a flow rate of 1.0 ml/min. The product of the reaction, [14C]oleoyl cholesterol, was measured using a Flow One radiometric detector.\nThe ACAT IC50 value for each compound was determined from a plot of % inhibition from control vs inhibitor concentration."}, "[2]": {"tested_on": "cholesterol-cholic acid fed rats", "assay": "Determination of hypolipidaemic activity in cholesterol-cholic acid fed rats", "format": "in vivo, rat", "conditions": "male Sprague-Dawley rats on 0.4% cholesterol, 0.2% cholic acid diet, serum on fourth day", "from_the_text": "(ii) Determination of hypolipidaemic activity in cholesterol-cholic acid fed rats\nMale Sprague-Dawley rats (CD, Charles River) each weighing 200-300 g were used. Hypercholesterolemia was induced in the rats by administration of a diet enriched to 0.4% cholesterol, 0.2% cholic acid. Prior to the administration of the diet, blood samples were collected under halothane anesthesia by cardiac puncture to determine baseline lipid levels. The blood was allowed to clot and serum was obtained for the analysis of total cholesterol, dextran-precipitable lipoproteins cholesterol (VLDL +LDL) and total triglycerides. The rats were divided into groups so that each group had similar average baseline serum lipid levels. Five days after the initial blood sampling, administration of each test compound and the cholesterol-cholic acid-enriched diet was begun. Compounds to be tested by gavage were administered b.i.d. in 0.5% methyl cellulose at 9:00 a.m. and 3:00 p.m. for three days and at 9:00 a.m. on the fourth day. Compounds administered as part of the diet were dissolved in ethanol and sprayed on to the diet. The ethanol was allowed to evaporate and the diet given to the rats for three days. On the fourth day, blood samples were collected and the final serum lipid levels determined. All blood samplings were taken after a four-hour fast. […]"}}, "note": "pIC50: −log10 of the molar value."}
{"smiles": "CCCCCCCN(Cc1ccc(OCC(OC)OC)cc1)C(=O)Nc1ccc(OC)cc1OC", "note": "[Synthetic Example 1]", "values": [{"measurement": "pIC50", "setting": "[1]", "value": 7.57}, {"measurement": "reduction of LDL-cholesterol", "setting": "[2]; dose of 25 mg/kg", "value": 78, "unit": "%"}, {"measurement": "reduction of LDL-cholesterol", "setting": "[2]; dose of 50 mg/kg", "value": 92, "unit": "%"}]}
